Results reported in PubChem BioAssay (NCI).
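Five compound concentrations were applied to cells in 96-well plates for 48 hours; endpoints were derived by simple linear interpolation of the resulting dose-response curve. At the TGI there is no net growth.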

How the values were obtained:
Assay in all cases: inhibition of tumour cell growth, NCI panel, 48 h
[1] = tested on: 786-0 renal
[2] = tested on: A498 renal
[3] = tested on: A549 NSCLC
[4] = tested on: ACHN renal
[5] = tested on: CAKI-1 renal
[6] = tested on: CCRF-CEM leukemia
[7] = tested on: COLO 205 colon
[8] = tested on: DU-145 prostate
[9] = tested on: EKVX NSCLC
[10] = tested on: HCC-2998 colon
[11] = tested on: HCT-116 colon
[12] = tested on: HCT-15 colon
[13] = tested on: HL-60(TB) leukemia
[14] = tested on: HOP-62 NSCLC
[15] = tested on: HOP-92 NSCLC
[16] = tested on: HS 578T breast
[17] = tested on: HT29 colon
[18] = tested on: IGROV1 ovarian
[19] = tested on: K-562 leukemia
[20] = tested on: M14 melanoma
[21] = tested on: MALME-3M melanoma
[22] = tested on: MCF7 breast
[23] = tested on: MDA-N
[24] = tested on: MOLT-4 leukemia
[25] = tested on: NCI-H23 lung
[26] = tested on: NCI-H460 lung
[27] = tested on: NCI/ADR-RES ovarian
[28] = tested on: OVCAR-4 ovarian
[29] = tested on: OVCAR-5 ovarian
[30] = tested on: OVCAR-8 ovarian
[31] = tested on: PC-3 prostate
[32] = tested on: RPMI-8226 leukemia
[33] = tested on: RXF 393 renal
[34] = tested on: SF-268 CNS
[35] = tested on: SK-MEL-28 melanoma
[36] = tested on: SK-MEL-5 melanoma
[37] = tested on: SK-OV-3 ovarian
[38] = tested on: SNB-19 CNS
[39] = tested on: SNB-75 CNS
[40] = tested on: SR leukemia
[41] = tested on: SW-620 colon
[42] = tested on: T-47D breast
[43] = tested on: TK-10 renal
[44] = tested on: U251 CNS
[45] = tested on: UACC-257 melanoma
[46] = tested on: UO-31 renal

COC(=O)N[C@H](C(=O)NC(OCc1ccccc1)C1COC(C)(C)O1)C(C)O[Si](C)(C)C(C)(C)C (stereo partly specified)
TGI [1]: > 100 µM | TGI [2]: > 100 µM | TGI [3]: > 100 µM | TGI [4]: > 100 µM | TGI [5]: > 100 µM | TGI [6]: > 100 µM | TGI [7]: > 100 µM | TGI [8]: > 100 µM | TGI [9]: > 100 µM | TGI [10]: > 100 µM | TGI [11]: > 100 µM | TGI [12]: > 100 µM | TGI [13]: > 100 µM | TGI [14]: > 100 µM | TGI [15]: > 100 µM | TGI [16]: > 100 µM | TGI [17]: > 100 µM | TGI [18]: > 100 µM | TGI [19]: > 100 µM | TGI [20]: > 100 µM | TGI [21]: > 100 µM | TGI [22]: > 100 µM | TGI [23]: > 100 µM | TGI [24]: > 100 µM | TGI [25]: > 100 µM | TGI [26]: > 100 µM | TGI [27]: > 100 µM | TGI [28]: > 100 µM | TGI [29]: > 100 µM | TGI [30]: > 100 µM | TGI [31]: > 100 µM | TGI [32]: > 100 µM | TGI [33]: > 100 µM | TGI [34]: > 100 µM | TGI [35]: > 100 µM | TGI [36]: 65.8 µM | TGI [37]: > 100 µM | TGI [38]: > 100 µM | TGI [39]: > 100 µM | TGI [40]: > 100 µM | TGI [41]: > 100 µM | TGI [42]: > 100 µM | TGI [43]: > 100 µM | TGI [44]: > 100 µM | TGI [45]: > 100 µM | TGI [46]: > 100 µM
